Reference: ChEMBL document CHEMBL1201862, “PubChem BioAssay data set” (2004)
Blank lines part the entries; values can stand above or below the compound they belong to. Calls of active or inactive are those of the source.

What was measured:
[1] = biological target: T1, Apoptotic protease-activating factor 1 (Homo sapiens, UniProt O14727); experiment: SAR analysis of small molecule Activators of Apaf-1 in a Fluorescent assay.; type: functional; conditions: read-out: EC50_Mean;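 note: caspase-3 cleavage of fluorogenic Rh110 DEVD substrate downstream of apoptosome activation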
T1 sequence (O14727 whole entry): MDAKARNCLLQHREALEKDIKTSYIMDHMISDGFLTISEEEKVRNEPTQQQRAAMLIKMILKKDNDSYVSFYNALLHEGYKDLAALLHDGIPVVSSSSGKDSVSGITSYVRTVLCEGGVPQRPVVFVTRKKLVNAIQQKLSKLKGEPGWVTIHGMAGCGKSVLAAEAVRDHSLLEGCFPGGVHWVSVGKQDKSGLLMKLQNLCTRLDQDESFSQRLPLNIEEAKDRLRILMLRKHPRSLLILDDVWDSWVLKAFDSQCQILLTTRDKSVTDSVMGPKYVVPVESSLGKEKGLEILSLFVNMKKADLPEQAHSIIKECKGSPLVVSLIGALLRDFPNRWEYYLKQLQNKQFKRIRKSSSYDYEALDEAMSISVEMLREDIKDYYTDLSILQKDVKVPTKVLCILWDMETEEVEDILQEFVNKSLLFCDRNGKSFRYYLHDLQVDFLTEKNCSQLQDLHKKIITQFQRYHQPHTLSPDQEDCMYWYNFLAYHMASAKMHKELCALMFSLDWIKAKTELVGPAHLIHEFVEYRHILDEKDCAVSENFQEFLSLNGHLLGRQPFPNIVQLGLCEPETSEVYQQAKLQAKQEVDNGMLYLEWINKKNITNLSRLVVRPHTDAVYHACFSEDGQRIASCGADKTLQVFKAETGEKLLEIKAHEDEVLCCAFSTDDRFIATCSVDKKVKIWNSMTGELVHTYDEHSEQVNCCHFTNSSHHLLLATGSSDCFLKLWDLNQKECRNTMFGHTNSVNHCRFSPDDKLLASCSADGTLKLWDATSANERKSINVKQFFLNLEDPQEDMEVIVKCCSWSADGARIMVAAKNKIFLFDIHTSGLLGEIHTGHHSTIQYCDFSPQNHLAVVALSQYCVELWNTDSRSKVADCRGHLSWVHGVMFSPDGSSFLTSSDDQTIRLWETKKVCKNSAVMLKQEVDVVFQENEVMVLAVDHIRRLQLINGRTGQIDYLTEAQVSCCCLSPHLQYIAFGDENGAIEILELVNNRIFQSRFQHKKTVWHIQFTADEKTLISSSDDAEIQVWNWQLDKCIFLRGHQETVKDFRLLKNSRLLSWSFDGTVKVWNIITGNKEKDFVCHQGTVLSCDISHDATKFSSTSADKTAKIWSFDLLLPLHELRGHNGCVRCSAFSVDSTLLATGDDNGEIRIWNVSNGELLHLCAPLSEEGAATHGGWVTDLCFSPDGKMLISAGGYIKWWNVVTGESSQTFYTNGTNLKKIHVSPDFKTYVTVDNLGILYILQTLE

[2] = biological target: T2, ATP-dependent translocase ABCB1 (Homo sapiens, UniProt P08183); experiment: inhibition of BCRP-mediated JC-1 efflux – Ig-MXP3 cells, flow cytometry, set 2, dose response (AID 504566); type: functional; conditions: read-out: EC50_MICROM_;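 note: flow cytometry median green fluorescence of retained JC-1 dye; potency of efflux pump inhibition measured as rising substrate retention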
T2 sequence (P08183 whole entry): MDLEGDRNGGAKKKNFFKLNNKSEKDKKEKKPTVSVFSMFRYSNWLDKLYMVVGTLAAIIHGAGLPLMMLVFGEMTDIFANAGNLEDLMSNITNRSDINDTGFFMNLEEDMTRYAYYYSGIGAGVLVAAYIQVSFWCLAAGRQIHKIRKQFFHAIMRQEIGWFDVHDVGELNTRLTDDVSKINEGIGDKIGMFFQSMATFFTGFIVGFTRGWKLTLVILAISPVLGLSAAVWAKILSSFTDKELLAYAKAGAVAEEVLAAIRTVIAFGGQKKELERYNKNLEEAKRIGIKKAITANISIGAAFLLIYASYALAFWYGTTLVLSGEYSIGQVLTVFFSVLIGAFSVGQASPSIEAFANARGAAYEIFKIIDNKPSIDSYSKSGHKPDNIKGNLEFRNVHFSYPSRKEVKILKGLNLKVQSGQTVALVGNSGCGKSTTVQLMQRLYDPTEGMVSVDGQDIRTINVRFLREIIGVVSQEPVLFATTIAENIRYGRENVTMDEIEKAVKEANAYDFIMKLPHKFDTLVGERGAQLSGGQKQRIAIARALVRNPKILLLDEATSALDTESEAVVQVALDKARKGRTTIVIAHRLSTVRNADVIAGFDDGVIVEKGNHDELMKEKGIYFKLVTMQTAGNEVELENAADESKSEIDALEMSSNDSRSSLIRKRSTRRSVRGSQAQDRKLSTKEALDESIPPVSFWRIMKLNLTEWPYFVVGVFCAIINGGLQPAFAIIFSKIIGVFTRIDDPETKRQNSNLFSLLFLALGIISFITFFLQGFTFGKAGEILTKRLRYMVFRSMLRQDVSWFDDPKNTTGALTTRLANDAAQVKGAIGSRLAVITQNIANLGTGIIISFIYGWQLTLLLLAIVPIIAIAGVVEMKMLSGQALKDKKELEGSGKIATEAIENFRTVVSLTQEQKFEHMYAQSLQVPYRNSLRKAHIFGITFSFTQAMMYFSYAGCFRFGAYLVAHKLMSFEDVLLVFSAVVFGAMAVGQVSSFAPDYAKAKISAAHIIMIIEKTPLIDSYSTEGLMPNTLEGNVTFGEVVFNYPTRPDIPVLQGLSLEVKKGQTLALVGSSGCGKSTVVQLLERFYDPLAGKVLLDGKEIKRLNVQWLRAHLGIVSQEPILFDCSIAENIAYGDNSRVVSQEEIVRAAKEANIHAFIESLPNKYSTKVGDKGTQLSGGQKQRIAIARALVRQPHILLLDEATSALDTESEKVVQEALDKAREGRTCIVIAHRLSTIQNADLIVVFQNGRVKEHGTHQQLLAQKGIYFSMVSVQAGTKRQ

[3] = biological target: T2, ATP-dependent translocase ABCB1; experiment: P-gp JC-1 efflux blockade concentration-response – Jurkat-DNR cells, flow cytometry, set 2, dose response (AID 504569); type: functional; conditions: read-out: EC50_MICROM_;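 note: potency of pump inhibitors that raise cellular JC-1 green fluorescence up to the nicardipine level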
Leucine aminopeptidase = biological target: T3, Leucine aminopeptidase (Plasmodium falciparum 3D7, UniProt Q8IL11); experiment: P. falciparum M17LAP inhibitors, primary screen, biochemical, fluorogenic H-Leu-NHMec substrate, 1536-well (AID 1619); type: functional
T3 sequence (Q8IL11 whole entry): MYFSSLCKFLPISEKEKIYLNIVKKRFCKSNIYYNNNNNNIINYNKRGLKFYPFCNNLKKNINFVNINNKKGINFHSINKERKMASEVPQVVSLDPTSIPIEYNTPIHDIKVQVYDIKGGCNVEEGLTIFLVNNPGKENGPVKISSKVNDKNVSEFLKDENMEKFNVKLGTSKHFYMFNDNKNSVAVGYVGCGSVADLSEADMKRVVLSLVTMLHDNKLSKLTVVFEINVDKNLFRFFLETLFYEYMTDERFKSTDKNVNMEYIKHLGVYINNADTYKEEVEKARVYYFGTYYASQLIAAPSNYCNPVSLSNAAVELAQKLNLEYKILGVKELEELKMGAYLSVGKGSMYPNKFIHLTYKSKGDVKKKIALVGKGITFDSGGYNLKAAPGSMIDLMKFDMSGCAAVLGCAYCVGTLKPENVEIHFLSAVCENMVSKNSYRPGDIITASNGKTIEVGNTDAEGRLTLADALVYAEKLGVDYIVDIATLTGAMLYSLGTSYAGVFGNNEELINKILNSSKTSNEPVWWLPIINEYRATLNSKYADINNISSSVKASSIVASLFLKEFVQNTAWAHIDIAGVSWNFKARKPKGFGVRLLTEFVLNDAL

Large T antigen = Large T antigen (Simian virus 40, UniProt P03070); type: functional, Betapolyomavirus macacae;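 note: Confirmatory-stage PubChem screen for compounds that inhibit SV40 T antigen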
Large T antigen, sequence (P03070 whole entry): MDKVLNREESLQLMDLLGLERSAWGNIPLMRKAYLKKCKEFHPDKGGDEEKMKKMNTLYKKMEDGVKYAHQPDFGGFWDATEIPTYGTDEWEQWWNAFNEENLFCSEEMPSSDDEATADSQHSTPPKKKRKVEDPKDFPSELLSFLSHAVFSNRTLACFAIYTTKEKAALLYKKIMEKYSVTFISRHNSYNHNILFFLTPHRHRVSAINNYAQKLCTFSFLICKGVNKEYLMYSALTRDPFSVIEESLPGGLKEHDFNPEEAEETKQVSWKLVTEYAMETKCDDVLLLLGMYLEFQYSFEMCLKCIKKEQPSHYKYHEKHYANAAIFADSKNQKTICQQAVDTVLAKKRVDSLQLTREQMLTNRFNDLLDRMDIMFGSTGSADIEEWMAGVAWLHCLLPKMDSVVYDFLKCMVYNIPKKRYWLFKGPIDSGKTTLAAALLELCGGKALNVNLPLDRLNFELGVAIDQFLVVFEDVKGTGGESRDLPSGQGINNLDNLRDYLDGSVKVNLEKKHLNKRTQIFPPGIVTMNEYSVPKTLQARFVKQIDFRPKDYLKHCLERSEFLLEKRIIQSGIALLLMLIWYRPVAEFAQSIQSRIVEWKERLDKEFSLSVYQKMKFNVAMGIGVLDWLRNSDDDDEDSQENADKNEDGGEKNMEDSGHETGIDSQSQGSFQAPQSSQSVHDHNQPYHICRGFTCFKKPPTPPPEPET

[4] = activation of miR-122 Renilla sensor silencing – cell-based, Huh7 psiCHECK-miR122, Renilla luciferase, cherry-picked, dose response (AID 651956); type: functional;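 note: huh7 hepatoma cells stably carrying a psiCHECK-2 miR-122 sensor plasmid; renilla luciferase signal reporting endogenous miR-122 activity after 48 h compound exposure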
[5] = general mammalian cell viability loss – inhibitor set, cherry-pick, set 2, cytotoxicity control for miR-122 modulator project, dose response (AID 720697); type: functional, cell-based
CHO = CHO cell viability loss, potency – luminescence, cytotoxicity control for TLR9-MyD88 binding inhibitor project, dose response (AID 588339); type: functional, cell-based, hamster; conditions: Cricetulus griseus;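 note: CHO cells stably coexpressing TLR9 and MyD88 fusions from primary screen; compound exposure lasted 48 hours before viability readout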
[6] = biological target: T4, High affinity choline transporter 1 (Homo sapiens, UniProt Q9GZV3); experiment: human choline transporter blockers, potency – cell-based, 5-point CRC, membrane potential dye, dose response (AID 504840); type: functional
T4 sequence (Q9GZV3 whole entry): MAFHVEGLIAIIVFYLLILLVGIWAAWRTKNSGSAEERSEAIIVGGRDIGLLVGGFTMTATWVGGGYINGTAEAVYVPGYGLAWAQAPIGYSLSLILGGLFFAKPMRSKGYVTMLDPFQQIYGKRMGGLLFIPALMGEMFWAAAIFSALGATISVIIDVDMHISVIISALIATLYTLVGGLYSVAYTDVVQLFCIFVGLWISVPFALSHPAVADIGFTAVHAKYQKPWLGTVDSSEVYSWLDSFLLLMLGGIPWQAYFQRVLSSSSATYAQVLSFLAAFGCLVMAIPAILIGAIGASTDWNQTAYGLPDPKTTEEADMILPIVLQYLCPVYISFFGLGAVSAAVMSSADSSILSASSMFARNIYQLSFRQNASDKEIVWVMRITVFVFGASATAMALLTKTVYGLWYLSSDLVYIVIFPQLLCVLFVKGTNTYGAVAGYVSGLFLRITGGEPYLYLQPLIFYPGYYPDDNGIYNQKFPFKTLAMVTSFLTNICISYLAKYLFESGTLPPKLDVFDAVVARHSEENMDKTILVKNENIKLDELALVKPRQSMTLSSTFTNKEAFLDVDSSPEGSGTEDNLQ

Beta Lactamase = Beta Lactamase (Pseudomonas aeruginosa, UniProt Q932Y6); experiment: BLA reporter interference, concentration series – BLA reporter cells, FRET fluorescence, artefact control for TLR9-MyD88 binding inhibitor project, dose response (AID 588341); type: cell-based;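 note: cell based assay in CHO-K1 cells stably expressing beta-lactamase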
Beta Lactamase, sequence (Q932Y6 whole entry): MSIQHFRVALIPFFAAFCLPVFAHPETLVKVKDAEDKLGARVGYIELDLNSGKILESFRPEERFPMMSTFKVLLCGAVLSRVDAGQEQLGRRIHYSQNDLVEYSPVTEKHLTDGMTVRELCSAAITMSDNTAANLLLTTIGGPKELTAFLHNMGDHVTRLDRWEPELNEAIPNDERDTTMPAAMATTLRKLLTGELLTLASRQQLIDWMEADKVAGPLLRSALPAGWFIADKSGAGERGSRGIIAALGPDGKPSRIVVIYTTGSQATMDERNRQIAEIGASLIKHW

[7] = biological target: T4, High affinity choline transporter 1; experiment: human choline transporter blockers, potency – cell-based, 10-point CRC, membrane potential dye, dose response (AID 588401); type: functional;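 note: membrane potential dye fluorescence of choline-evoked depolarization via CHT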
[8] = reduction of Shn3 3'UTR-driven luciferase in osteoblasts – cell-based, Clone20 osteoblasts, firefly luciferase, cherry-picked, dose response (AID 624132); type: functional;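 note: firefly luciferase luminescence from reporter carrying the Shn3 3'UTR in osteoblasts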
[9] = loss of viability in HepG2 cells – cell-based, CellTiter-Glo, cherry-picked, cytotoxicity control for Shn3 inhibitor project, dose response (AID 624134); type: functional
[10] = non-specific 3'UTR reporter inhibition in Clone20-Shn3RL – cell-based, Renilla luciferase, cherry-picked, counter-screen for Shn3 inhibitor project, dose response (AID 624133); type: functional
[11] = biological target: T5, Low molecular weight phosphotyrosine protein phosphatase (Homo sapiens, UniProt P24666); type: functional; conditions: read-out: IC50_Mean;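 note: Dose-response confirmation assay measuring inhibition of LMPTP enzyme activity by fluorescence intensity read-out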
T5 sequence (P24666 whole entry): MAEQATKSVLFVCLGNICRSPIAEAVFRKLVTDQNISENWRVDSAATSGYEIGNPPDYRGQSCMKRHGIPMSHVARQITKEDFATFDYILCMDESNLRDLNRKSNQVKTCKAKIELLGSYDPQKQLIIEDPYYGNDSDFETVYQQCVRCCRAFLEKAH

Compound: Cc1cccc(C)c1NC(=O)CSCC(=O)c1ccc(O)c(O)c1
IC50 (Leucine aminopeptidase): 20.9 µM (active)
IC50 (Large T antigen): 12.8 µM (active)
AC50 [4]: 15 µM (active)
AC50 [5]: 2.43 µM (active)

Compound: O=c1oc2ccccc2c(Cl)c1CN1CCCCC1
IC50 (CHO): 1.22 µM (active)
IC50 [6]: 10 µM (active)
IC50 (Beta Lactamase): 6.02 µM (active)
IC50 [7]: 6.69 µM (active)
AC50 [8]: 4.99 µM (active)
AC50 [9]: > 70 µM (inactive)
AC50 [10]: 7.15 µM (active)

Compound: C/C(=N\NS(=O)(=O)c1ccc(Cl)c([N+](=O)[O-])c1)c1ccc(C)o1
IC50 [11]: 80 µM (inactive)

More lines, now with the values ahead:

EC50 [1]: > 100 µM (inactive)
Compound: CCC(=O)N1CCc2cc(Br)c(S(=O)(=O)CCC(=O)Nc3cc(Cl)ccc3OC)cc21

EC50 [2]: 2.6 µM (active)
EC50 [3]: 2.22 µM (active)
Compound: COc1cccc(C(=O)N2CCN(c3cc(-c4ccccc4)nc4cc(-c5cccc(Cl)c5)nn34)CC2)c1
